US9930888B2, “Composition” (Conopco, Inc., priority 2013, dated 2018)

Assays:
S. epidermidis = experiment: bacterial respiration of S. epidermidis suspension in microplate; format: cell-based; conditions: lactam pre-blended with hydrotrope, added to remainder of composition, diluted to 11.5 ppm and 0.575 ppm; 20 hours
Method: Test samples were diluted in sterile water to achieve a 11.5 ppm level of lactam. Dilute solution (80 μl) was added to a S. epidermidis suspension (20 μl) of bacteria at a concentration of 8 logs in a microplate. Growth media (100 μl tryptone soya broth) was added to each well of the microplate and incubated for 20 hours. Bacterial respiration was measured every 30 minutes and the results were: • A—lactam+hydrotrope only (respiration of surviving bacteria detected ˜4-5 h) • B—lactam added directly to base formulation (which contains MPG)—no pre-mixing prior to addition (respiration of surviving bacteria detected 4-5 hrs) • C—lactam pre-mixed with hydrotrope and then added to base formulation (respiration of surviving bacteria not detected—20 hrs is max detection time) • D—hydrotrope added to base formulation (respiration of surviving bacteria detected 3-4 hrs). The example below is from data obtained when pre-blending lactams with hydrotrope before adding to the remainder of the composition, and diluting to 11.5 ppm and 0.575 ppm in sterile water in order to assess efficacy against S. epidermidis suspension Dilute solution (80 μl) was added to a S. epidermidis suspension (20 μl) of bacteria at a concentration of 8 logs in a microplate. Growth media (100 μl tryptone soya broth) was added to each well of the microplate and incubated for 20 hours. Bacterial respiration was measured every 30 minutes. Data of the test samples were then compared to un-treated cell suspensions (sterile water added instead of test samples) and percent inhibition calculated.

[1] = solubility of lactam in candidate solubilisers (magnetic stirring or ultrasonic mixing); format: physicochemical
Method: An Ultrasonic mixer was used to obtain determine solubility.
We used a Hielscher UP200S (200W) Sonic Tip on batches of 5-20 ml. We sonicated for up to 60 minutes.
We then tested the candidate solubilisers with 1% lactam, both with 72 hours high speed magnetic stirring (with held temperature of ˜500 in the cases of solubilisers that solidify alone at room temperature) and also 20 minutes Sonication.
In each case we incorporated the lactam powder into the solubilisers (at the levels indicated in the below table) using high speed stirring to avoid lumps from forming. Once the powder was added, the described mixing method (either continued high speed stirring or Ultrasonic mixing) commenced. In the cases of Sorbitan Oleate and Polysorbate-60, we applied initial heating to approx. 500 to ensure the solubilisers were fully liquid prior to commencing addition of the lactam. Both of these materials are non-flowing at room temperature. PEG-40 Hydrogenated Castor required initial heating to ˜350 to ensure complete fluidity prior to commencing.

[2] = appearance of lactam solution when added to base formulation at 5%; format: physicochemical; conditions: 3% lactam in PEG-60 Hydrogenated Castor Oil; Magnetic stirring 1 hour
From the text: We ensured the lactam solutions were fully uniform through constant mechanical agitation (to avoid the settling of any unsolubilised lactam material) and added them to base using slow speed stirring to incorporate them without generating aeration.

[3] = solubility of lactam in candidate solubilisers (magnetic stirring or ultrasonic mixing); format: physicochemical; conditions: 1% lactam in PEG-40 Hydrogenated Castor Oil; Magnetic stirring 24 hours

C=C1NC(=O)C=C1c1ccccc1 [5-methylene-4-phenyl-1H-pyrrol-2(5H)-one]
Result (inhibition of bacterial respiration versus water control) (S. epidermidis): 82.5%
Observations of solvent solution: % of lactam solubilised ([1]; 1% lactam in 3-Methoxy-3-methyl-1-butanol, 20 minutes sonication, temp reached 60-70 C., forced): ~5% of lactam
Observations of solvent solution ([1]; 1% lactam in 3-Methoxy-3-methyl-1-butanol, Magnetic stirring 72 hours): No solubility
Observations of solvent solution ([1]; 1% lactam in Diglycerin, 20 minutes sonication, temp reached 60-70 C.): No solubility
Observations of solvent solution ([1]; 1% lactam in Diglycerin, Magnetic stirring 72 hours): No solubility
Observations of solvent solution: % of lactam solubilised ([1]; 1% lactam in Isopentyldiol, 20 minutes sonication, temp reached 60-70 C., forced): ~5% of lactam
Observations of solvent solution ([1]; 1% lactam in Isopentyldiol, Magnetic stirring 72 hours): No solubility
Observations of solvent solution: % of lactam solubilised ([1]; 1% lactam in PEG-40 Hydrogenated Castor Oil, Magnetic stirring 72 hours): ~90% of lactam
Observations of solvent solution: % of lactam solubilised ([1]; 1% lactam in PEG-40 Hydrogenated Castor Oil, Magnetic stirring 72 hours with temp. at 50 C.): ~99% of lactam
Observations of solvent solution: % of lactam solubilised ([1]; 1% lactam in PEG-60 Hydrogenated Castor Oil, 20 minutes sonication, temp reached 60-70 C.): ~25% of lactam
Observations of solvent solution: % of lactam solubilised ([1]; 1% lactam in PEG-60 Hydrogenated Castor Oil, Magnetic stirring 72 hours at 50 C.): ~25% of lactam
Observations of solvent solution: % of lactam solubilised ([1]; 1% lactam in Pentylene Glycol, 20 minutes sonication, temp reached 60-70 C.): ~5% of lactam
Observations of solvent solution: % of lactam solubilised ([1]; 1% lactam in Pentylene Glycol, Magnetic stirring 72 hours): ~5% of lactam
Observations of solvent solution: % of lactam solubilised ([1]; 1% lactam in Polysorbate 20, Magnetic stirring 24 hours): ~75% of lactam
Observations of solvent solution: % of lactam solubilised ([1]; 1% lactam in Polysorbate 20, Magnetic stirring 72 hours): ~95% of lactam
Observations of solvent solution: % of lactam solubilised ([1]; 1% lactam in Polysorbate 60, 20 minutes sonication, temp reached 60-70 C.): ~25% of lactam
Observations of solvent solution: % of lactam solubilised ([1]; 1% lactam in Polysorbate 60, Magnetic stirring 72 hours at 50 C.): ~25% of lactam
Observations of solvent solution: % of lactam solubilised ([1]; 1% lactam in Polysorbate 80, 20 minutes sonication, temp reached 60-70 C.): ~25% of lactam
Observations of solvent solution: % of lactam solubilised ([1]; 1% lactam in Polysorbate 80, Magnetic stirring 72 hours at 50 C.): ~25% of lactam
Observations of solvent solution: % of lactam solubilised ([1]; 1% lactam in Sisterna SP30-C, 20 minutes sonication, temp reached 60-70 C.): ~25% of lactam
Observations of solvent solution: % of lactam solubilised ([1]; 1% lactam in Sisterna SP30-C, Magnetic stirring 72 hours at 50 C.): ~25% of lactam
Observations of solvent solution: % of lactam solubilised ([1]; 1% lactam in Sisterna SP50-C, 20 minutes sonication, temp reached 60-70 C.): ~25% of lactam
Observations of solvent solution: % of lactam solubilised ([1]; 1% lactam in Sisterna SP50-C, Magnetic stirring 72 hours at 50 C.): ~25% of lactam
Observations of solvent solution: % of lactam solubilised ([1]; 1% lactam in Sisterna SP70-C, 20 minutes sonication, temp reached 60-70 C.): ~25% of lactam
Observations of solvent solution: % of lactam solubilised ([1]; 1% lactam in Sisterna SP70-C, Magnetic stirring 72 hours at 50 C.): ~25% of lactam
Observations of solvent solution: % of lactam solubilised ([1]; 1.5% lactam in Polysorbate 20, 20 minutes sonication, temp reached 60-70 C.): ~75% of lactam
Observations of solvent solution: % of lactam solubilised ([1]; 1.5% lactam in Polysorbate 20, 60 minutes sonication, temp reached 80-90 C., dark brown colour): ~95% of lactam
Observations of solvent solution: % of lactam solubilised ([1]; 1.5% lactam in Polysorbate 20, Magnetic stirring 48 hours): ~50% of lactam
Observations of solvent solution: % of lactam solubilised ([1]; 1.5 lactam in Polysorbate 20, Magnetic stirring, heated to 50 C. 72 hours): ~75% of lactam
Observations of solvent solution: % of lactam appeared to solubilise ([1]; 2.1% lactam in PEG-40 Hydrogenated Castor Oil, 20 minutes sonication, temp reached 80 C., small amount of 'burnt' spots visible): 90% of lactam
Observations of solvent solution ([1]; 2.1% lactam in PEG-40 Hydrogenated Castor Oil, 60 minutes sonication, temp reached 110 C., very dark colour): lactam solubilised.
Observations of solvent solution: % of lactam solubilised ([1]; 2.1% lactam in PEG-40 Hydrogenated Castor Oil, Magnetic stirring 24 hours): ~50% of lactam
Observations of solvent solution: % of lactam solubilised ([1]; 2.1% lactam in PEG-40 Hydrogenated Castor Oil, Magnetic stirring 48 hours): ~75% of lactam
Observations of solvent solution: % of lactam solubilised ([1]; 2.1% lactam in PEG-40 Hydrogenated Castor Oil, Magnetic stirring, heated to 50 C. 8 hours): ~50% of lactam
Observations of solvent solution: % of lactam solubilised ([1]; 2.1% lactam in Polysorbate 20, 20 minutes sonication, temp reached 60-70 C., dark colour formed): ~90% of lactam
Observations of solvent solution: % of lactam solubilised ([1]; 2.1% lactam in Polysorbate 20, 60 minutes sonication, temp reached 80 C.): 90% of lactam
Observations of solvent solution: % of lactam solubilised ([1]; 2.1% lactam in Polysorbate 20, 60 minutes sonication, temp reached 90-100 C.): 90% of lactam
Observations of solvent solution: % of lactam solubilised ([1]; 2.1% lactam in Polysorbate 20, Magnetic stirring 24 hours): ~50% of lactam
Observations of solvent solution: % of lactam solubilised ([1]; 2.1% lactam in Polysorbate 20, Magnetic stirring 48 hours): ~75% of lactam
Observations of solvent solution: % of lactam solubilised ([1]; 2.1% lactam in Polysorbate 20, Magnetic stirring, heated to 50 C. 8 hours): ~50% of lactam
Observations of solvent solution: % of lactam solubilised ([1]; 2.1% lactam in Polysorbate 20, Magnetic stirring, heated to 50 C. 72 hours): ~75% of lactam
Observations of solvent solution ([1]; 3% lactam in Diglycerin, Magnetic stirring 1 hour): No solubility
Observations of solvent solution: % of lactam solubilised ([1]; 3% lactam in Dipropylene Glycol, Magnetic stirring 1 hour): ~5% of lactam
Observations of solvent solution ([1]; 3% lactam in Hexylene Glycol, Magnetic stirring 1 hour): No solubility
Observations of solvent solution ([1]; 3% lactam in Isopentyldiol, Magnetic stirring 1 hour): No solubility
Observations of solvent solution ([1]; 3% lactam in MMB, Magnetic stirring 1 hour): No solubility
Observations of solvent solution: % of lactam solubilised ([1]; 3% lactam in PEG-40 Hydrogenated Castor Oil, 20 minutes sonication, temp reached 60-70 C.): ~75% of lactam
Observations of solvent solution: % of lactam solubilised ([1]; 3% lactam in PEG-40 Hydrogenated Castor Oil, 60 minutes sonication, temp reached 80 C.): ~75% of lactam
Observations of solvent solution: % of lactam solubilised ([1]; 3% lactam in PEG-40 Hydrogenated Castor Oil, Magnetic stirring 1 hour): ~25% of lactam
Observations of solvent solution: % of lactam solubilised ([1]; 3% lactam in PEG-60 Hydrogenated Castor Oil, Magnetic stirring 1 hour): ~10% of lactam
Observations of solvent solution ([1]; 3% lactam in Pentylene Glycol, Magnetic stirring 1 hour): No solubility
Observations of solvent solution: % of lactam solubilised ([1]; 3% lactam in Polysorbate 20, 20 minutes sonication, temp reached 60-70 C.): ~50% of lactam
Observations of solvent solution: % of lactam solubilised ([1]; 3% lactam in Polysorbate 20, 60 minutes sonication, temp reached 90 C.): ~60-70% of lactam
Observations of solvent solution: % of lactam solubilised ([1]; 3% lactam in Polysorbate 20, Magnetic stirring 1 hour): ~25% of lactam
Observations of solvent solution: % of lactam solubilised ([1]; 3% lactam in Polysorbate 60, Magnetic stirring 1 hour, 50 C.): ~10% of lactam
Observations of solvent solution: % of lactam solubilised ([1]; 3% lactam in Polysorbate 80, Magnetic stirring 1 hour): ~10% of lactam
Observations of solvent solution: % of lactam solubilised ([1]; 3% lactam in Sisterna SP30-C, Magnetic stirring 1 hour): ~5% of lactam
Observations of solvent solution: % of lactam solubilised ([1]; 3% lactam in Sisterna SP50-C, Magnetic stirring 1 hour): ~5% of lactam
Observations of solvent solution: % of lactam solubilised ([1]; 3% lactam in Sisterna SP70-C, Magnetic stirring 1 hour): ~5% of lactam
Observations of solvent solution: % of lactam solubilised ([1]; 3% lactam in Sorbitan Oleate, Magnetic stirring 1 hour, 50 C.): ~5% of lactam
Observations of solvent solution: % of lactam solubilised ([1]; 4.2% lactam in PEG-40 Hydrogenated Castor Oil, 20 minutes sonication, temp reached 60-70 C., very dark colour): 50% of lactam
Observations of solvent solution: % of lactam solubilised ([1]; 4.2% lactam in PEG-40 Hydrogenated Castor Oil, 60 minutes sonication, temp reached 80 C., very dark colour): 75% of lactam
Observations of solvent solution: % of lactam solubilised ([1]; 4.2% lactam in PEG-40 Hydrogenated Castor Oil, 60 minutes sonication, temp reached 110 C., very dark colour): 75% of lactam
Observations of solvent solution: % of lactam solubilised ([1]; 4.2% lactam in PEG-40 Hydrogenated Castor Oil, Magnetic stirring 24 hours): ~25% of lactam
Observations of solvent solution: % of lactam solubilised ([1]; 4.2% lactam in PEG-40 Hydrogenated Castor Oil, Magnetic stirring 48 hours): ~25% of lactam
Observations of solvent solution: % of lactam solubilised ([1]; 4.2% lactam in PEG-40 Hydrogenated Castor Oil, initially stirred for 2, 4 and 6 hours): ≤ 25% solubilised).
Observations of solvent solution: % of lactam solubilised ([1]; 4.2% lactam in Polysorbate 20, 20 minutes sonication, temp reached 60-70 C.): ~50% of lactam
Observations of solvent solution: % of lactam solubilised ([1]; 4.2% lactam in Polysorbate 20, 60 minutes sonication, temp reached 90 C.): ~60-70% of lactam
Observations of solvent solution: % of lactam solubilised ([1]; 4.2% lactam in Polysorbate 20, Magnetic stirring 24 hours): ~25% of lactam
Observations of solvent solution: % of lactam solubilised ([1]; 4.2% lactam in Polysorbate 20, Magnetic stirring 48 hours): ~25% of lactam
Observations of solvent solution: % of lactam solubilised ([1]; 4.2% lactam in Polysorbate 20, initially stirred for 2, 4 and 6 hours): ≤ 25% solubilised).
Observations of solvent solution: % of lactam solubilised ([1]; PEG-40 Hydrogenated Castor Oil table: 3% lactam, Magnetic stirring 1 hour): ~25% of lactam
Observations of solvent solution: % of lactam solubilised ([1]; Polysorbate 20 table: 3% lactam, Magnetic stirring 1 hour): ~25% of lactam
colour change of lactam solution ([1]; when samples exceeded 50 C): dark brown colour
colour change of lactam solution ([1]; when the temperature reached 65 C, Polysorbate-20 and PEG-40 Hydrogenated Castor Oil variants only): virtually opaque
Observations when added to base @ 5% [2]: Cloudy in solution
Observations of solvent solution: % of lactam solubilised [3]: ~75% of lactam
